Test results from patent US20220378715A1, “USE OF CANNABIDIOL PREPARATIONS IN THE TREATMENT OF ABSENCE EPILEPSY” (GW Research Limited, priority 2019, published 2022).

Legend:
Type in all cases: in vivo, rat
WAG/Rij rats [1] = assay: EEG recording of spike wave discharges (SWDs), established absence seizures; details: 10 and 100 mg/Kg i.p. twice daily, 14 days; vs control (vehicle); ANOVA across groups; FIG. 2A
Description: The effects of botanically derived purified CBD (>98%) (bCBD) and synthetic CBD (sCBD) at 10 and 100 mg/Kg, i.p. twice daily, for both drugs, was assessed in this animal model, by EEG-recordings and behavioural tests.
WAG/Rij rats were treated with bCBD or sCBD (10 and 100 mg/Kg, i.p. twice daily, for both drugs) over a chronic test period of at least 14 days.
Drug treatment was started at about 6 months of age (n=10 for every dose and drug group) and continued for 14 consecutive days, when experimental tests were performed (treatment was also continued during the experimental procedure phase. Age-matched control (vehicle) WAG/Rij rats (n =10) were kept under the same housing conditions over the same period of time with vehicle (1:1:18, Ethanol:kolliphor HS15:saline; i.p.).
WAG/Rij rats (n=10) underwent 2 EEG-recording periods in 2 consecutive days (one session per day). Every recording session lasted 3 hours and was performed 1 hour after drug administration. […]
All animals were allowed at least 1 week of recovery and handled twice a day. […] The blinded quantification of absence seizures was based on the number and the duration of EEG Spike Wave Discharges (SWDs).
All statistical procedures were performed using GraphPad Prism 6.0 (GraphPad Software, Inc., La Jolla, CA, USA). EEG recordings were subdivided into 30-min epochs, and the duration and number of SWDs were evaluated separately.

WAG/Rij rats [2] = assay: Forced swimming test (FST); details: for immobility time: sub-chronic, vs control
Description: (§1) To test the effects bCBD and sCBD on epileptic comorbidities, separate groups (n=10) of treated and vehicle WAG/Rij rats at 6 months of age were subjected to several behavioural tests (see below—cohort 2).
(§2) All behavioural tests were performed 1-hour post-dose in the morning. All experimental groups were subjected to a single test per day. […].
The FST, is currently the most reliable method to rapidly screen compounds for antidepressant activity in rodents; we used an FST protocol previously standardized in our laboratories for WAG/Rij rats.
Briefly, rats were placed individually for 6 min into a glass cylinder (height 47 cm, diameter 38 cm) filled with 38 cm of water maintained between 23° C. and 25° C. The total duration of immobility (immobility time) was recorded during the last 4 min of a 6-min testing period. The criterion for immobility and passive swimming (immobility time) was floating vertically in the water while making only those movements essential to keep the head above the surface of the water, which is directly proportional to depressive-like behaviour. At the end of the FST, rats were removed and dried with a towel before being returned to their home cage. Mean swimming velocity and total distance moved were also measured and examined for every experimental group in order to check for any obvious locomotor impairment.

WAG/Rij rats [3] = assay: Elevated plus maze (EPM); details: 10 and 100 mg/Kg; p=0.67; FIG. 3B
Description: as §1, §2
The EPM consists of 2 opposing open arms and 2 opposing closed arms of the same size (45 cm×10 cm) with 10 cm high walls connected by a central platform (10×10 cm) and elevated 80 cm above the floor. Rats are positioned in the central platform facing a closed arm and the number of entries into, time spent on each arm, and central platform are measured.
The maze was systematically cleaned (Disposable towels and 70% ethanol solution) to remove olfactory cues, after each animal was tested. The shorter the time spent in open arms and central platform the higher the anxiety is and vice versa. Mean velocity and total distance moved were also measured and examined for every experimental group.

WAG/Rij rats [4] = assay: Passive avoidance (PA)
Description: as §1, §2
Rats were tested in a step-through type passive avoidance apparatus (Ugo Basile, Italy, model 40,550), measuring 57×27×30 cm, consisting of a cage divided into two chambers (light and dark) by a sliding door.
The PA test was carried out over two successive days. Briefly, on day one (pre-acquisition trial or habituation), rats were introduced individually in the light compartment and allowed to freely explore the cage for 5 min. The acquisition or conditioning trial was conducted 15 min after habituation. Rats were individually introduced in the light compartment.; following a 30 s adaptation time, the sliding door between the two compartments was opened. When rats completely entered into the dark compartment, the sliding door was automatically closed and an electrical foot-shock (0.5 mA for 3 s) was delivered via the floor grid.
The latency to enter (s) in the dark compartment was detected and analysed. The retention or memory trial was evaluated 24 h after the acquisition trial, by recording their latency to enter (s) in the dark compartment. The latency to enter in the dark compartment was directly linked to the retention memory: the better the memory, the greater the latency.

WAG/Rij rats [5] = assay: Novel object recognition test (nORT)
Description: as §1, §2
The nORT was performed as previously described by Bartolini et al. with some minor modifications. Briefly, three days before nORT, rats were exposed to a habituation trial lasting 6 min.
During this trial, each rat was allowed to freely explore an opaque open field Plexiglas box (70×70×30 cm). To investigate short-term memory, in the familiarization trial (T1) two identical objects (wood cubes) were located in two opposite corners of the box. Each rat was placed in the centre of the open field, facing away from the sample objects and left to explore freely the objects for a maximum of 5 min, before returning to its home cage. The familiarization trial ended when the rat completed 20 s of exploration for each object.
Exploration was considered directing the nose at a distance <2 cm to the object and/or touching it with the nose and sniffing. After a retention interval of 60 min the test phase (T2) was conducted.
After this session, the rat returned to home cage. The time spent exploring the familiar (F) and the novel object (N) was recorded separately and a discrimination index (DI) was calculated (DI=N−F/N+F). To avoid olfactory cues both the objects and the box were cleaned with 70% ethanol solution after each session.
Furthermore, to avoid place preference, the role (familiar or novel object) and the position of the two objects during T2 were randomly changed. Total distance moved (cm) was also evaluated and analysed for every experimental group in order to check for locomotor deficits.

WAG/Rij rats [6] = assay: Three chamber test (TCT), sociability
Description: as §1, §2
Three-chambered approach (sociability) is an automated, widely used and well validated assay that compares time that the subject (rodent) spends with a novel animal versus time spent with a non-social inanimate object.
The three-chamber apparatus is a non-transparent white plastic box with two transparent acrylic partitions with a rectangular opening. The acrylic partitions divide the box into three chambers (left, centre, and right), illuminated at 120 lux. The animal is placed in the middle chamber with the dividers closed to allow it to explore the middle chamber for ten minutes.
After this habituation period, an unfamiliar adult animal is placed inside a small wire cage in one of the side chambers. An identical wire cage with an inanimate object is placed in the opposite chamber. The dividers are then raised, allowing the test subject to move freely throughout all three chambers of the apparatus over a 10-minute test session. […]

WAG/Rij rats [7] = assay: Rotarod test (RT); details: 10 and 100 mg/Kg; p=0.9455; data not shown
Description: The Rotarod apparatus (Ugo Basile, Varese, Italy) consists of a base platform and a rotating rod with a diameter of 6 cm and a non-slippery surface. The integrity of motor coordination is assessed on the basis of the time the animals keep their balance on the accelerating rotating rod up to a maximum of 10 min (600 s).
Briefly, rats were pre-trained for 2 days in order to reach a stable performance. After the training, the rotation of the rod was gradually accelerated from 5 rpm to 50 rpm. After a maximum of 3 falls from the rod, the test is suspended and the time is recorded, the result is a mean of the 3 measures.

For `C=C(C)[C@@H]1CCC(C)=C[C@H]1c1c(O)cc(CCCCC)cc1O` [sCBD, cannabidiol], the “mean number of spike wave discharges (nSWDs)” value (WAG/Rij rats [1]) was “did not significantly (F4,45=2.572; p=0.0504; n=10 per group) alter”, the “immobility time, overall” value (WAG/Rij rats [2]; 10 and 100 mg/Kg, vs control (vehicle), ANOVA across groups, FIG. 3A) was “significantly (F4,45=12.29; p<0.0001; n=10 per group) reduce” and the immobility time (WAG/Rij rats [2]; higher dose (100 mg/Kg i.p. twice daily)) was “significant reduction”. The immobility time (WAG/Rij rats [2]; lower dose (10 mg/Kg i.p. twice daily)) was “not effective”, the anxiety-like behaviour (WAG/Rij rats [3]) was “not affected” and the “latency to enter in the dark compartment” value (WAG/Rij rats [4]; conditioning trial, 10 and 100 mg/Kg, data not shown) was “no significant effect”. For the same compound, the “latency to enter in the dark compartment” value (WAG/Rij rats [4]; retention session, higher dose (100 mg/Kg), vs control) was “did not significantly modify”, the “latency to enter in the dark compartment” value (WAG/Rij rats [4]; retention session, lower dose (10 mg/Kg), vs control) was “did not significantly modify” and the “discrimination index (DI)” value (WAG/Rij rats [5]; 100 mg/Kg, vs vehicle) was “significantly increased”. For the same compound, the “discrimination index (DI), overall” value (WAG/Rij rats [5]; 10 and 100 mg/Kg, ANOVA across groups, FIG. 3D) was “significantly (F4,45=6.009; p=0.0006; n=10 per group) affect”, the “discrimination index (DI)” value (WAG/Rij rats [5]; lower dose (10 mg/Kg), vs control) was “did not significantly” and the “time spent in the novel rat chamber vs the novel object chamber” value (WAG/Rij rats [6]; 100 mg/Kg, sub-chronic) was “significantly more time in the novel rat chamber”. For the same compound, the “time spent sniffing the novel rats” value (WAG/Rij rats [6]; higher dose (100 mg/Kg), vs control rats, p<0.0001) was “significantly increased” and the “rotarod test results (motor coordination)” value (WAG/Rij rats [7]) was “did not influence”.
